Legend:
[1] = system: PC12 cells; experiment: Protective effect against 6-OHDA-induced cytotoxicity in PC12 cells (MTT); settings: Rattus norvegicus, PC-12, read-out: IC50 against 6-OHDA-induced cytotoxicity
Experimental: (§1) PC12 cells were routinely maintained in RPMI-1640 media containing 100 IU/mL penicillin, and 100 μg/mL streptomycin supplemented by 10% heat-inactivated HS, 5% FBS in a humidified incubator containing 5% CO2 and 95% air at 37 °C [25]. The cell culture media was changed every two days. To perform experiments, cells were plated on poly-D-lysine/laminin-coated 24-well plates at a density of 3 × 10^5 cells/well and incubated for at least 24 h to allow cell adhesion.
(§2) To examine the effects of the test compounds on cell survival, cells were incubated in low serum media (1% HS, 1% FBS, 100 IU/mL penicillin, and 100 μg/mL streptomycin) with test compounds at the concentrations of 10 and 30 μM or an equivalent volume of vehicle control (DMSO at the final concentration of 0.3%) for 24 h. The media containing test compounds was sonicated at room temperature for 30 min to assure adequate dissolution in the media. […]
(§3) After the desired treatment, cell viability was determined by MTT assay as described previously, with slight modification. […] The absorbance of the dissolved solution was measured at 550 nm using a microplate reader (SpectraMax M2e, Molecular Devices, Sunnyvale, CA, USA). The cell viability was presented as the percentage of the absorbance measured in the vehicle-treated control cells. […]

[2] = system: PC12 cells; experiment: Protective effect against rotenone-induced cytotoxicity in PC12 cells (MTT); settings: Rattus norvegicus, PC-12, read-out: IC50 against rotenone-induced cytotoxicity
Experimental: as §1, §2, §3

**Q.** Which IC50 [1] does the source give for O=C(Nc1ccc(Br)cc1)c1ccc2[nH]ccc2c1 [Compound 8b, N-(4-bromophenyl)-1H-indole-5-carboxamide] here?
**A.** The IC50 was 2.8 µM.

**Q.** What about the IC50 [2] of the same compound?
**A.** The IC50 was 3.3 µM.

— article PMC8533206 (Antioxidants, 2021)
